Experimental findings from ChEMBL document CHEMBL3044952, “Synthesis and insect antifeedant activity of 2-substituted 2,3-dihydrofuran-3-ols and butenolides (Part II)” (1999) are described below.

Holding throughout (assay type): functional
One assay has as its system Spodoptera exempta. In words: Antifeedant activity against Spodoptera exempta larvae fed on artificial diet containing compound at 100 ppm by two choice assay.
The next assay concerns Spodoptera frugiperda. Nature of the assay: Antifeedant activity against Spodoptera frugiperda (fall armyworm) larvae fed on artificial diet containing compound at 100 ppm by two choice assay.
For the next assay, the system named is Pieris brassicae. In words: Antifeedant activity against fifth-instar larval stage of Pieris brassicae fed on compound-treated cabbage leaf disks at 5 mM by two choice assay.

With `CC(=O)OC[C@@]12[C@@H](OC(C)=O)C[C@@H](C)[C@](C)([C@@H]3C[C@H]4C=CO[C@H]4O3)[C@H]1CCC[C@]21CO1` [CLERODIN], the AFI with Spodoptera exempta amounted to 76%; with Spodoptera frugiperda, 78%.

In the case of `CC1(C)OC(=O)C=C1CCc1ccccc1`, in the assay on Pieris brassicae, the AFI was 33%.

With `CC1(C)OCCC1(O)CCc1ccccc1` (configuration not stated), the AFI with Pieris brassicae came out at 28%.

`CC1(C)OC(O)CC1(O)CCc1ccccc1` (configuration not stated): the AFI in the assay with Pieris brassicae is 5%.

`CC(=O)OC[C@@]12[C@@H](OC(C)=O)C[C@@H](C)[C@](C)(C[C@H](O)c3ccoc3)[C@H]1CCC[C@]21CO1` [6,19-DIACETYLTEUMASSILIN]: the values for the AFI in the assay with Spodoptera exempta and with Spodoptera frugiperda were 38% and 94%, respectively.

For `CC1(C)OC(=O)C=C1CCC1CCCCC1`, the AFI with Pieris brassicae turned out to be 26%.

Take `COC1CC(O)(CCc2ccccc2)C(C)(C)O1` (configuration not stated): the AFI in the assay with Pieris brassicae worked out at 23%.

Take `CC(=O)OC[C@@]12[C@@H](OC(C)=O)C[C@@H](C)[C@](C)(CCC3=CC(=O)OC3)[C@H]1CCC[C@]21CO1` [AJUGARIN I]: the AFI amounted to 73% in the assay with Spodoptera exempta and 47% in the assay on Spodoptera frugiperda.

With `CC1(C)OC(=O)CC1(O)CCc1ccccc1` (configuration not stated), the AFI in the assay on Pieris brassicae came to 36%.

`CCCCCCC1=CC(=O)OC1(C)C`: the AFI in the assay with Pieris brassicae came out at 9%.

On to `CC(=O)OC[C@@]12[C@@H](OC(C)=O)C[C@@H](C)C(C)(C)[C@H]1CCC[C@]21CO1`, for which the AFI in the assay on Spodoptera exempta is reported as 20%; in the assay with Spodoptera frugiperda it was 15%.

In the case of `CCCCCCC1(O)CC(=O)OC1(C)C` (configuration not stated), the AFI with Pieris brassicae is reported as 11%.

In the case of `O=C1C=C(CCC2CCCCC2)CO1`, the AFI with Pieris brassicae amounted to 35%.

For the molecule `C[C@@H]1CC(O[Si](C)(C)C(C)(C)C)CC[C@@]1(C)CCC1=CC(=O)OC1` (some centres not stated), the AFI came to 34% in the assay with Spodoptera exempta and 12% in the assay on Spodoptera frugiperda.

Regarding `O=C1CC(O)(CCC2CCCCC2)CO1` (configuration not stated), the AFI in the assay with Pieris brassicae is given as -4%.

As for `CC1(C)OC(=O)CC1(O)CCC1CCCCC1` (configuration not stated), the AFI in the assay with Pieris brassicae amounted to 15%.

For `O=C1CC(CCC2CCCCC2)CO1` (configuration not stated), the AFI in the assay on Pieris brassicae is -9.2%.
